{
  "source": "patent US20090105283A1",
  "about": "“3-HYDROQUINAZOLIN-4-ONE DERIVATIVES FOR USE AS STEAROYL CoA DESATURASE INHIBITORS” (priority 2007, published 2009)",
  "data": [
    {"biological_target": "T1, stearoyl-CoA desaturase (SCD) (Rattus norvegicus, UniProt P07308)", "T1 construct": "The microsomes were quickly thawed and added to assay buffer so that a concentration of 0.4 mg/ml was achieved; from tissue", "T1 sequence (P07308 1-358)": "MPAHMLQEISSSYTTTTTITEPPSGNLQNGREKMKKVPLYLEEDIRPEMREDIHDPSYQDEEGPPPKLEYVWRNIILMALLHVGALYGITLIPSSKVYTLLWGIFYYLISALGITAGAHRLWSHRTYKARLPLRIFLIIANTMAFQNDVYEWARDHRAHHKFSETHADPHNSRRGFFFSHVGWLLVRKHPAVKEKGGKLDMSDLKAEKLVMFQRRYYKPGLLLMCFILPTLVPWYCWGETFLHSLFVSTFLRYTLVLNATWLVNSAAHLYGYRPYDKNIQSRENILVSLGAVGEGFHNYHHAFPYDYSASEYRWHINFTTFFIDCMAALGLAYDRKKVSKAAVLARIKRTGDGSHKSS", "assay": "SCD assay with rat liver microsomes ([3H]stearoyl CoA, adapted from Talamo and Bloch)", "format": "biochemical", "details": "Table 1; rat liver microsomes 0.2 mg/ml assay final, [3H]stearoyl CoA substrate, 30 min preincubation, 45 min reaction, room temperature", "text": "(§1) Male Spraque Dawley Rats were placed on regimented fasting protocol for one week to stimulate SCD enzymatic activity. 48-hour periods were alternated between feeding and fasting to induce and down-regulate SCD activity with SCD activity being induced via carbohydrate rich diet prior to liver perfusion and collection.\n(§2) The rats were anesthetized with Isoflurane inhalation anesthetic, the liver perfused with cold phosphate buffered saline (PBS), weighed, and chilled in cold homogenization buffer (250 mM sucrose, 10 mM Tris, 1 mM EDTA, pH 7.6.\n(§3) The livers were finely minced and placed in homogenization tube. 40 mL of homogenization buffer was added to the homogenization tube and the liver homogenized and centrifuged in a pre-chilled […] for 10 min at 4° C.\n(§4) Following centrifugation, the supernatant was collected and the pellet removed and discarded. The supernatant was centrifuge at 10,000 G for 35 minutes. Following centrifugation, the supernatant was collect and the pellet discarded. The supernatant was then centrifuged in a pre-chilled 45-Ti rotor at 130,000 G (41,000 RPM) for 90 minutes at 4° C.\n(§5) The supernatant was then aspirated off and the collected microsomal pellet washed in 25 mL of Glycerol PBS (1×PBS 7.4, 20% Glycerol) and resuspended in 4-5 volumes of Glycerol PBS.\n(§6) The protein concentration of the microsomal preparation was determined by BCA assay (Pierce) and the microsomes were aliquoted and stored at −80° C.\n(§7) Biobeads were ground to a smaller size in a mortar and pestle and resuspended in 3.6% TCA. The beads were then filtered through […] mesh.\n(§8) SCD was determined in the desaturase assay buffer. This assay buffer contained 0.1 M Tris buffer, pH 7.2, 2 mM NADH, 4.8 mM ATP, 0.5 mM CoA, 4.8 mM MgCl2, and 0.1% BSA.\n(§9) 1 μl of each compound of Formula I was added to an assay plate by a low volume (0.5-10 μL) multichannel pipette. A DMSO control was also prepared. The microsomes were quickly thawed and added to assay buffer so that a concentration of 0.4 mg/ml was achieved (0.2 mg/ml assay final). 50 μl of the microsome suspension in assay buffer was then added into each well in the compound assay plate, the plate was covered, and the microsomes preincubated with the compounds for 30 minutes on the orbital shaker, 50-75 rpm, at room temperature.\n(§10) The reaction mixtures were then incubated for 45 minutes on the orbital shaker at 50-75 rpm at room temperature.\n(§11) The reaction was terminated by the addition of 10 μl of 21% trichloroacetic acid (TCA) to the reaction mixture followed incubation on the orbital shaker for 30 minutes at 50-75 rpm at room temperature followed by centrifugation for 5 minutes at 3700 rpm.\n(§12) 50 μl of a 6% Bio-Bead suspension in H2O was added to the reaction mixture and the assay plate was sealed. The Bio-Bead mixture was incubated on the orbital shaker for 1 hour, 100-150 rpm at room temperature, and then the mixture was centrifuged at 2000 g for 5 minutes to pellet the Bio-Beads.\n(§13) 25 μl of the supernatant was harvested from each well and transferred to a detection plate. 100 μl of OptiPhase SuperMix scinitillation cocktail (containing sufficient NaOH to neutralize the TCA) was added and the solutions mixed by vigorous shaking (300-400 rpm) for 5 minutes at room temperature.", "units": {"IC50": "nM"}, "values": [
      {"smiles": "O=C(CO)Nc1ccc2c(=O)n(Cc3cccc(Cl)c3)cnc2c1", "note": "[LXVIII, N-{3-[(3-chlorophenyl)methyl]-4-oxo(3-hydroquinazolin-7-yl)}-2-hydroxyacetamide]", "IC50": 2690},
      {"smiles": "O=C(CO)Nc1ccc2c(=O)n(Cc3ccc(F)c(F)c3)cnc2c1", "note": "[CIII, N-{3-[(3,4-difluorophenyl)methyl]-4-oxo(3-hydroquinazolin-7-yl)}-2-hydroxyacetamide]", "IC50": 4390},
      {"smiles": "O=C(Nc1ccc2ncn(Cc3ccc(Cl)c(Cl)c3)c(=O)c2c1)OCc1cccnc1", "note": "[XXIII, N-{3-[(3,4-dichlorophenyl)methyl]-4-oxo(3-hydroquinazolin-6-yl)}(3-pyridylmethoxy)carboxamide]", "IC50": 170},
      {"smiles": "O=C(CCOc1ccccc1)Nc1ccc2ncn(Cc3ccc(Cl)c(Cl)c3)c(=O)c2c1", "note": "[XXXIII, N-{3-[(3,4-dichlorophenyl)methyl]-4-oxo(3-hydroquinazolin-6-yl)}-3-phenoxypropanamide]", "IC50": 6880},
      {"smiles": "COc1ccccc1COC(=O)Nc1ccc2c(=O)n(Cc3ccc(Cl)c(Cl)c3)cnc2c1", "note": "[LXI, N-{3-[(3,4-dichlorophenyl)methyl]-4-oxo(3-hydroquinazolin-7-yl)}[(2-methoxyphenyl)methoxy]carboxamide]", "IC50": 700},
      {"smiles": "COc1ccccc1OCC(=O)Nc1ccc2c(=O)n(Cc3ccc(Cl)c(Cl)c3)cnc2c1", "note": "[L, N-{3-[(3,4-dichlorophenyl)methyl]-4-oxo(3-hydroquinazolin-7-yl)}-2-(2-methoxyphenoxy)acetamide]", "IC50": 1440},
      {"smiles": "CN(C)CC(=O)OCC(=O)Nc1ccc2ncn(Cc3ccc(Cl)c(Cl)c3)c(=O)c2c1", "note": "[LXXXVI, (N-{3-[(3,4-dichlorophenyl)methyl]-4-oxo-3-hydroquinazolin-6-yl}carbamoyl)methyl 2-(dimethylamino)acetate]", "IC50": 360},
      {"smiles": "COc1ccc(Cn2cnc3ccc(NC(=O)CO)cc3c2=O)cc1", "note": "[CI, 2-hydroxy-N-{3-[(4-methoxyphenyl)methyl]-4-oxo(3-hydroquinazolin-6-yl)}acetamide]", "IC50": 8220},
      {"smiles": "CC(=O)OCC(=O)Nc1ccc2ncn(Cc3ccc(C(F)(F)F)cc3)c(=O)c2c1", "note": "[XCVI, [N-(4-oxo-3-{[4-(trifluoromethyl)phenyl]methyl}-3-hydroquinazolin-6-yl)carbamoyl]methyl acetate]", "IC50": 2740},
      {"smiles": "O=C(Nc1ccc2ncn(Cc3ccc(Cl)c(Cl)c3)c(=O)c2c1)OCC1CC1", "note": "[LXXXV, N-{3-[(3,4-dichlorophenyl)methyl]-4-oxo(3-hydroquinazolin-6-yl)}(cyclopropylmethoxy)carboxamide]", "IC50": 2970},
      {"smiles": "CC(=O)OCC(=O)Nc1ccc2c(=O)n(Cc3cccc(Cl)c3)cnc2c1", "note": "[LXV, (N-{3-[(3-chlorophenyl)methyl]-4-oxo-3-hydroquinazolin-7-yl}carbamoyl)methyl acetate]", "IC50": 27100},
      {"smiles": "O=C(Nc1ccc2c(=O)n(Cc3cccc(F)c3)cnc2c1)OCc1cccnc1", "note": "[LXXVI, N-{3-[(3-fluorophenyl)methyl]-4-oxo(3-hydroquinazolin-7-yl)}(3-pyridylmethoxy)carboxamide]", "IC50": 1340},
      {"smiles": "O=C(Nc1ccc2ncn(CCc3ccc(Cl)cc3)c(=O)c2c1)OCc1ccccc1", "note": "[XVI, N-{3-[2-(4-chlorophenyl)ethyl]-4-oxo(3-hydroquinazolin-6-yl)}(phenylmethoxy)carboxamide]", "IC50": 470},
      {"smiles": "CC(=O)OCC(=O)Nc1ccc2c(=O)n(Cc3cccc(F)c3)cnc2c1", "note": "[LXXII, (N-{3-[(3-fluorophenyl)methyl]-4-oxo-3-hydroquinazolin-7-yl}carbamoyl)methyl acetate]", "IC50": 290},
      {"smiles": "O=C(CSc1ccncc1)Nc1ccc2ncn(Cc3ccc(Cl)c(Cl)c3)c(=O)c2c1", "note": "[LIV, N-{3-[(3,4-dichlorophenyl)methyl]-4-oxo(3-hydroquinazolin-6-yl)}-2-(4-pyridylthio)acetamide]", "IC50": 2560},
      {"smiles": "CC(=O)OCC(=O)Nc1ccc2c(=O)n(Cc3ccc(Cl)c(F)c3)cnc2c1", "note": "[LXXVIII, (N-{3-[(4-chloro-3-fluorophenyl)methyl]-4-oxo-3-hydroquinazolin-7-yl}carbamoyl)methyl acetate]", "IC50": 1020},
      {"smiles": "O=C(CO)Nc1ccc2ncn(Cc3cccc(C(F)(F)F)c3)c(=O)c2c1", "note": "[XCV, 2-hydroxy-N-(4-oxo-3-{[3-(trifluoromethyl)phenyl]methyl}(3-hydroquinazolin-6-yl))acetamide]", "IC50": 1380}
    ]},
    {"biological_target": "T1, stearoyl-CoA desaturase (SCD)", "assay": "SCD assay with rat liver microsomes ([3H]stearoyl CoA, adapted from Talamo and Bloch)", "format": "biochemical", "details": "Table 2 (Example 21, procedures of Example 20); rat liver microsomes, [3H]stearoyl CoA substrate", "text": "as §1, §2, §3, §4, §5, §6, §7, §8, §9, §10, §11, §12, §13", "units": {"IC50": "nM"}, "values": [
      {"smiles": "Cc1ccc(Cn2cnc3ccc(NC(=O)CO)cc3c2=O)cc1C", "note": "[compound 22, N-(3-(3,4-dimethylbenzyl)-4-oxo-3,4-dihydroquinazolin-6-yl)-2-hydroxyacetamide]", "IC50": 280},
      {"smiles": "O=C(CO)Nc1ccc2ncn(CCc3cccc(Cl)c3)c(=O)c2c1", "note": "[compound 38, N-(3-(3-chlorophenethyl)-4-oxo-3,4-dihydroquinazolin-6-yl)-2-hydroxyacetamide]", "IC50": 5800},
      {"smiles": "O=C(CO)Nc1ccc2ncn(CCCc3ccccc3)c(=O)c2c1", "note": "[compound 27, 2-hydroxy-N-(4-oxo-3-(3-phenylpropyl)-3,4-dihydroquinazolin-6-yl)acetamide]", "IC50": 4500},
      {"smiles": "O=C(CO)Nc1ccc2ncn(CCCCCOc3cc(Cl)ccc3Cl)c(=O)c2c1", "note": "[compound 64, N-(3-(5-(2,5-dichlorophenoxy)pentyl)-4-oxo-3,4-dihydroquinazolin-6-yl)-2-hydroxyacetamide]", "IC50": 1300},
      {"smiles": "O=C(Nc1ccc2ncn(Cc3ccc(F)c(C(F)(F)F)c3)c(=O)c2c1)OCc1ccccc1", "note": "[compound 14, benzyl 3-(4-fluoro-3-(trifluoromethyl)benzyl)-4-oxo-3,4-dihydroquinazolin-6-ylcarbamate]", "IC50": 310},
      {"smiles": "O=C(C[C@H](O)c1ccccc1)Nc1ccc2ncn(Cc3ccc(Cl)c(Cl)c3)c(=O)c2c1", "note": "[compound 98, (S)—N-(3-(3,4-dichlorobenzyl)-4-oxo-3,4-dihydroquinazolin-6-yl)-3-hydroxy-3-phenylpropanamide]", "IC50": 1800},
      {"smiles": "O=C(CO)Nc1ccc2ncn(Cc3ccc(F)c(C(F)(F)F)c3)c(=O)c2c1", "note": "[compound 16, N-(3-(4-fluoro-3-(trifluoromethyl)benzyl)-4-oxo-3,4-dihydroquinazolin-6-yl)-2-hydroxyacetamide]", "IC50": 920},
      {"smiles": "O=C(CO)Nc1ccc2c(=O)n(Cc3ccc4ccccc4c3)cnc2c1", "note": "[compound 33, 2-hydroxy-N-(3-(naphthalen-2-ylmethyl)-4-oxo-3,4-dihydroquinazolin-7-yl)acetamide]", "IC50": 2800},
      {"smiles": "O=C(CO)Nc1ccc2ncn(CCCCOc3cc(Cl)ccc3Cl)c(=O)c2c1", "note": "[compound 55, N-(3-(4-(2,5-dichlorophenoxy)butyl)-4-oxo-3,4-dihydroquinazolin-6-yl)-2-hydroxyacetamide]", "IC50": 240},
      {"smiles": "O=C(CO)Nc1ccc2ncn(Cc3ccc(F)c(F)c3)c(=O)c2c1", "note": "[compound 2, N-(3-(3,4-difluorobenzyl)-4-oxo-3,4-dihydroquinazolin-6-yl)-2-hydroxyacetamide]", "IC50": 2400},
      {"smiles": "O=C(CO)Nc1ccc2ncn(CCCOc3cccc(Cl)c3Cl)c(=O)c2c1", "note": "[compound 65, N-(3-(3-(2,3-dichlorophenoxy)propyl)-4-oxo-3,4-dihydroquinazolin-6-yl)-2-hydroxyacetamide]", "IC50": 640},
      {"smiles": "CC(c1ccc(Cl)c(Cl)c1)n1cnc2cc(NC(=O)OCc3ccccc3)ccc2c1=O", "note": "(stereo not drawn) [compound 9, benzyl 3-(1-(3,4-dichlorophenyl)ethyl)-4-oxo-3,4-dihydroquinazolin-7-ylcarbamate]", "IC50": 290},
      {"smiles": "CC(=O)OCC(=O)Nc1ccc2c(=O)n(C(C)c3ccc(Cl)c(Cl)c3)cnc2c1", "note": "(stereo not drawn) [compound 10, 2-(3-(1-(3,4-dichlorophenyl)ethyl)-4-oxo-3,4-dihydroquinazolin-7-ylamino)-2-oxoethyl acetate]", "IC50": 130}
    ]}
  ]
}
